In patent publication US20260308158A1, “TARGETING RNAS ASSOCIATED WITH TAUOPATHIES WITH SMALL MOLECULES” (University of Florida Research Foundation, Incorporated, priority 2023, published 2026):

Assays:
[1] = Cell viability (WST-1), untransfected HeLa cells; assay type: cell-based; settings: human, hela cells, 12.5 μM, WST-1, read-out: reduction of viability of HeLa cells
Procedure: (§1) Cell Viability. Cells were treated with DMSO (vehicle) or compound 2 for 48 h at 37° C. After the removal of the DMSO or compound-containing growth medium, the cells were washed with 1×DPBS and incubated in growth medium containing 10% (v/v) WST-1 cell proliferation reagent (Roche) or CellTiter Fluor (Promega; per the manufacturer's recommend protocol) for 40 min. The absorbance of the solution was measured at 450 and 650 nm with a SpectraMax M5 plate reader (Molecular Devices) for cells treated with WST-1. The background signal at 650 nm was subtracted from the WST-1 signal at 450 nm for analysis. For cells treated with CellTiter Fluor, the fluorescence was measured with 390 nm excitation and 505 nm emission wavelengths. Cells treated with a compound were compared to vehicle treated cells to determine the effect of the compound on cell viability.

[2] = test system: HeLa cells; assay: Cell viability (WST-1), untransfected HeLa cells; assay type: cell-based; settings: up to 12.5 μM, 48 h
Procedure: as §1

[3] = test system: MAPT exon 10 splicing in LAN5 cells; assay: 4R/3R endogenous MAPT mRNA by RT-qPCR in LAN5 neuroblastoma cells; assay type: cell-based
Procedure: RNA Isolation and Real-Time Quantitative PCR (RT-qPCR). HeLa cells were treated as described in the Luciferase Reporter assay to Study Exon 10 Alternative Splicing. LAN5 cells were seeded in 12-well plates at 0.2×10^6 cells per well, treated with compound or ASO, and incubated for 48 h. Compound stocks prepared in DMSO and ASO stocks prepared in water were diluted in growth medium and added to cells. Total RNA was extracted from cells and analyzed via RT-qPCR to determine levels of 3R and 4R tau mRNA. In brief, the cells were washed with 1×DPBS and then lysed in the well using 300 μL of Lysis Buffer provided in a Quick-RNA MiniPrep kit (Zymo Research), which was used to extract total RNA per the manufacturer's protocol including the on-column DNase I digestion. The concentration of total RNA was measured by NanoDrop 2000 (Thermo Fisher Scientific). Only samples with OD260/OD280>1.8 were carried forward for analysis. Reverse transcription (RT) was carried out on 200 ng of total RNA using a qScript cDNA synthesis kit (QuantaBio) in a total volume of 10 μL according to the manufacturer's protocol. An Applied Biosystems QS5 384-well PCR system was used to complete qPCR reactions with Power SYBR Green Master Mix (Life Technologies), 600 nM each primer (Table S3), 20 ng of cDNA (1 μL of the RT reaction), in a total volume of 33 μL. Technical triplicates (10 μL each) were aliquoted into 384-well qPCR plates (Applied biosystems, 4483285). Subsequent qPCR analysis was performed using an Applied Biosystems QS5 384-well PCR system (software v.1.3.0). 4R/3R ratio were analyzed using ΔΔCt method using Equation 2: […]
where ΔCt 4R or ΔCt 3R is the difference between the Ct values for the 4R or 3R MAPT mRNA and a housekeeping gene (18S rRNA) in total RNA from cells.

[4] = molecular target: DDPAC I17T mutant RNA; assay: Fluorescent binding affinity, DDPAC I17T mutant RNA
Procedure: Fluorescent Binding Affinity Measurements. Binding assays were completed as previously described.^30 Briefly, the RNA of interest was folded in 1× Assay Buffer-1 (AB1: 8 mM Na2HPO4, pH 7.0, 185 mM NaCl, and 1 mM EDTA) by heating at 95° C. for 30 s followed by slowly cooling to room temperature. Bovine serum albumin (BSA) was then added to a final concentration of 40 μg/mL to afford 1× Assay Buffer-2 (AB2: 8 mM Na2HPO4, pH 7.0, 185 mM NaCl, 1 mM EDTA, and 40 μg/mL BSA). The RNA solution was serial diluted with 1×AB2. Then, compound of interest was added to the RNA solutions to a final concentration of 0.5 μM. […] Fluorescence intensity was measured using a Tecan Plate Reader (Gain: 100, Integration time: 40 μs). […] The change in fluorescence of the small molecule was calculated by its comparison to samples lacking RNA. Binding affinity was calculated using Equation 1, as previously described:^30
where I and I0 are the measured fluorescence intensity of the compound with or without RNA, respectively, Δε is the difference between the fluorescence intensity with the infinite concentration of RNA and the fluorescence intensity without RNA, [SM]0 and [RNA]0 are the concentrations of the small molecule (SM) and RNA, respectively, and Kd is the dissociation constant.

[5] = test system: DDPAC I17T model RNA; assay: Optical melting, DDPAC I17T RNA; assay type: binding; settings: 2 at 1.5 μM
Procedure: Optical Melting Experiments. The thermal stabilities of WT, DDPAC, and DDPAC+I17T model RNAs were analyzed by optical melting in the presence or absence of compound 1 or 2 as previously described.^18 The RNAs (2 μM) were heated to 95° C. in 1×PBS buffer and slowly cooled to room temperature. The samples were then cooled to 15° C. in the presence of compound 1 (10 μM; 0.1% (v/v) DMSO), 2 (1.5 μM; 0.1% (v/v) DMSO) or vehicle (0.1% (v/v) DMSO) and then heated to 85° C. at a rate of 1° C. per min. Absorbance as a function of temperature was measured at 260 nm using a Beckman Coulter DU800 UV/vis spectrophotometer. Melting curves were fitted with MeltWin 3.5.^31

[6] = Plasma protein binding by equilibrium dialysis; assay type: in vitro ADME; settings: 37° C., 6 h (2 at 5 μM), read-out: free fraction in plasma
Procedure: Plasma and brain binding. Plasma protein binding was determined by equilibrium dialysis using a Thermo Scientific™ RED Device per the manufacturer's protocol. Each sample was prepared by addition of 2 into 100 μL plasma with final concentration of 5 μM (0.1% (v/v) DMSO). 1×PBS was used as dialysis buffer and was added into the buffer chamber. The plate was incubated with shaking at 37° C. for 6 h. The concentration of 2 in the plasma and buffer compartments was determined as described in Quantitation of 2 in Mouse Plasma and Brain. The free fraction was calculated as [buffer]/[plasma].

[7] = assay type: physicochemical; settings: not tested for this reason

Kd (estimated; no saturable binding) [4]: > 50 µM
fraction unbound at 6 h [6]: 0.089 ± 0.009
solubility at 200 μM [7]: insolubility
Structure (SMILES): COc1cc(N)ncc1CCCN(C)CCCn1cnc2c3ccccc3n(C)c2c1=O [Compound 2, 3-(3-((3-(6-amino-4-methoxypyridin-3-yl)propyl)(methyl)amino)propyl)-5-methyl-3,5-dihydro-4H-pyrimido[5,4-b]indol-4-one]
cytotoxicity at 48 h, 12.5 µM [1]: 17 ± 3%
effect on viability of HeLa cells [2]: No effect on the viability
inhibition at 1.5 µM ([3]; LA-N-5, 2 at 1.5 μM, LAN5, 48 h, RT-qPCR, read-out: reduction of 4R/3R ratio of MAPT RNA): 56 ± 4%
PSI10 (PSI of MAPT exon 10) vs vehicle ([3]; LAN5 cells): downregulated
effect on Tm [5]: no effect on the Tm
